Laboratory results reported in US20250100982A1, “PLEUROMUTILIN DERIVATIVE WITH THIAZOLE SIDE CHAIN AND PREPARATION AND APPLICATION” (SOUTH CHINA AGRICULTURAL UNIVERSITY, priority 2023, published 2025).
≈ marks a conversion by molar mass, not a printed value.

What was measured:
[1] = test system: clinical S. aureus 144; assay: In vitro antibacterial experiment, broth dilution MIC; format: cell-based, Staphylococcus aureus; conditions: 37° C., 24 h, clinical isolate
Description: (§1) A broth dilution method was used in the experiment. Tiamulin was selected as a control drug in the experiment. The tiamulin is a pleuromutilin antibiotic as well as one of the top ten veterinary antibiotics in the world.
(§2) The strains used in the experiment were methicillin-resistant Staphylococcus aureus ATCC43300, Staphylococcus aureus ATCC29213, clinical Staphylococcus aureus AD3, clinical S. aureus 144, Mycoplasma gallisepticum 352, 352 tiamulin induced drug-resistant bacteria and clinical isolates M47.
(§3) Preparation of target compound stock solution: 6.4 mg of target compound was accurately weighed, placed in a 5 mL volumetric flask, and dissolved with 0.25 mL of DMSO and 0.25 mL of Tween 80; then 4.5 mL of distilled water was added for fixing the volume; the solution was fully shaken to obtain a stock solution (1280 μg/mL); and the stock solution was filtered with a 0.22 μm filter membrane and sterilized, subpackaged into small tubes, and stored at −20° C. The control drug tiamulin was also prepared according to the above method.
(§4) Preparation of bacterial solution: the strains that were well preserved at −20° C. were taken out and inoculated on a new MH plate, and after culture at 37° C. for 24 h, a single colony was selected and inoculated in MH medium for culturing again for 24 h. The selected single colony was transferred to sterile normal saline and the turbidity was adjusted to 0.6 McF. At this moment, the concentration of the bacterial solution was 10^6 CFU/mL.
(§5) Preparation of MIC plate: a sterile 96-well plate was taken; 180 μL of MH broth medium was added to the first well, 100 μL of MH broth medium was added to the second well to the 12th well; 20 μL of target compound solution with a concentration of 1280 μg/mL was added to the first well; after even mixing, 100 μL of solution was added to the second well, and mixed well; 100 μL of solution was absorbed to the third well, and so on; and 100 μL of solution was absorbed to the 12th well and discarded. At this moment, the drug concentrations in the wells were: 128, 64, 32, 16, 8, 4, 2, 1, 0.5, 0.25, 0.125, and 0.06 μg/mL, and three parallel groups were made for the drugs of the concentrations.
(§6) Inoculation of bacterial solution: 100 μL of bacterial solution was added into the first well to the 12th well, so that the final bacterial solution concentration in each well was about 5×10^5 CFU/mL, and the drug concentrations in the first well to the 12th well were 64, 32, 16, 8, 4, 2, 1, 0.5, 0.25, 0.125, 0.06 and 0.03 μg/mL respectively. […] When a single jumping hole occurred in the microbroth dilution method, the maximum drug concentration for inhibiting bacteria was recorded, and the experiment shall be repeated if multiple jumping holes occurred.

[2] = test system: Mycoplasma gallisepticum 352-tiamulin resistant strain; assay: microbe, parasite or virus in culture; format: cell-based; conditions: for MIC, Mycoplasma gallisepticum 352-tiamulin resistant strain: broth dilution, 37° C.
Protocol: (§7) The broth dilution method was adopted in the experiment. The tiamulin was selected as the control drug in the experiment.
(§8) The strains used in the experiment were Mycoplasma gallisepticum 352, 352-tiamulin resistant strain, and M47.
(§9) Preparation of the target compound stock solution: the compound was dissolved with 1 mL of DMSO, then fixed in volume with a 250 mL volumetric flask and fully shaken to obtain the stock solution (5120 μg/mL).
(§10) The stock solution was diluted in petri dishes with a doubling dilution method. Each petri dish contained 2 ml of medical solution, and the medical solution was diluted to 20 ml, so that the final concentrations of the compound were […] respectively.
(§11) 15 sterile 2 mL EP tubes were placed in each row. 0.9 mL of liquid medium was added to the first tube, and 0.5 mL of liquid medium was added to the other tubes respectively. 0.1 mL of prepared medical solution was added to the first tube and fully mixed. Then, 0.5 mL of medical solution was added to the second tube, and so on. Finally, 0.5 mL of medical solution was absorbed and discarded.

[3] = test system: clinical Staphylococcus aureus AD3; assay: In vitro antibacterial experiment, broth dilution MIC; format: cell-based; conditions: 37° C., 24 h, clinical isolate
Description: as §1, §2, §3, §4, §5, §6

[4] = test system: Staphylococcus aureus ATCC29213; assay: as above; format: cell-based; conditions: 24 h; for MIC, S. aureus ATCC 29213: 37° C.
Description: as §1, §2, §3, §4, §5, §6

[5] = test system: methicillin-resistant Staphylococcus aureus ATCC43300; assay: microbe, parasite or virus in culture; format: cell-based; conditions: 24 h; for MIC, MRSA ATCC 43300: broth dilution, 37° C.
Description: as §1, §2, §3, §4, §5, §6

[6] = test system: Mycoplasma gallisepticum 352; assay: In vitro inhibition experiment of mycoplasma activity, broth dilution MIC; format: cell-based; conditions: for MIC, Mycoplasma gallisepticum 352: 37° C.
Protocol: as §7, §8, §9, §10, §11

[7] = test system: Mycoplasma gallisepticum M47; assay: as above; format: cell-based; conditions: clinical isolate; for MIC, Mycoplasma gallisepticum M47: 37° C.
Protocol: as §7, §8, §9, §10, §11

| Compound | MIC, S. aureus 144 [1] [µg/mL] | MIC, Mycoplasma gallisepticum 352-tiamulin resistant strain [2] [µg/mL] | MIC, S. aureus AD3 [3] [µg/mL] | MIC, S. aureus ATCC 29213 [4] [µg/mL] | MIC, MRSA ATCC 43300 [5] [µg/mL] | MIC, Mycoplasma gallisepticum 352 [6] [µg/mL] | MIC, Mycoplasma gallisepticum M47 [7] [µg/mL] | MIC ([1]; Staphylococcus aureus) [µg/mL] | MIC ([2]; Mycoplasmoides gallisepticum, read-out: MIC, Mycoplasma gallisepticum 352-tiamulin resistant strain) [µg/mL] | MIC ([3]; Staphylococcus aureus, read-out: MIC, S. aureus AD3) [µg/mL] | MIC ([4]; Staphylococcus aureus, ATCC29213, 37° C., read-out: MIC, S. aureus ATCC 29213) [µg/mL] | MIC ([5]; Staphylococcus aureus, ATCC 43300 / MRSA, read-out: MIC, MRSA ATCC 43300) [µg/mL] | MIC ([6]; Mycoplasmoides gallisepticum, 352, 37° C.) [µg/mL] | MIC ([7]; Mycoplasmoides gallisepticum, M47, 37° C.) [µg/mL] |
| --- | --- | --- | --- | --- | --- | --- | --- | --- | --- | --- | --- | --- | --- | --- |
| C=CC1(C)CC(OC(=O)CSc2ncc(NC(=O)C3CCC3)s2)C2(C)C(C)CCC3(CCC(=O)C32)C(C)C1O (stereo not drawn) [Compound 2] | 0.25 (≈ 0.435 µM) | 0.25 (≈ 0.435 µM) | 0.125 (≈ 0.217 µM) | 0.125 (≈ 0.217 µM) | 0.0625 (≈ 0.109 µM) | 0.008 (≈ 0.0139 µM) | 0.5 (≈ 0.87 µM) | – | – | – | – | – | – | – |
| C=CC1(C)CC(OC(=O)CSc2ncc(NC(=O)C3CCCCC3)s2)C2(C)C(C)CCC3(CCC(=O)C32)C(C)C1O (stereo not drawn) [Compound 4] | 0.0625 (≈ 0.104 µM) | 0.25 (≈ 0.415 µM) | 0.0625 (≈ 0.104 µM) | 0.03125 (≈ 0.0518 µM) | 0.125 (≈ 0.207 µM) | 0.015 (≈ 0.0249 µM) | 1 (≈ 1.66 µM) | – | – | – | – | – | – | – |
| C=CC1(C)CC(OC(=O)CSc2ncc(NC(=O)COC(C)=O)s2)C2(C)C(C)CCC3(CCC(=O)C32)C(C)C1O (stereo not drawn) [Compound 10] | 0.0625 (≈ 0.105 µM) | 0.03 (≈ 0.0506 µM) | 0.125 (≈ 0.211 µM) | 0.125 (≈ 0.211 µM) | 0.0625 (≈ 0.105 µM) | ≤0.004 | 0.03 (≈ 0.0506 µM) | – | – | – | – | – | – | – |
| C=CC1(C)CC(OC(=O)CSc2ncc(NC(=O)C(C)(C)CC)s2)C2(C)C(C)CCC3(CCC(=O)C32)C(C)C1O (stereo not drawn) [Compound 18] | 0.5 (≈ 0.846 µM) | 0.5 (≈ 0.846 µM) | 0.25 (≈ 0.423 µM) | 0.25 (≈ 0.423 µM) | 0.25 (≈ 0.423 µM) | 0.03 (≈ 0.0508 µM) | 1 (≈ 1.69 µM) | – | – | – | – | – | – | – |
| C=CC1(C)CC(OC(=O)CSc2ncc(NC(=O)C(Cl)(Cl)Cl)s2)C2(C)C(C)CCC3(CCC(=O)C32)C(C)C1O (stereo not drawn) [Compound 23] | 2 (≈ 3.13 µM) | 1 (≈ 1.57 µM) | 1 (≈ 1.57 µM) | 2 (≈ 3.13 µM) | 1 (≈ 1.57 µM) | 0.125 (≈ 0.196 µM) | 4 (≈ 6.27 µM) | – | – | – | – | – | – | – |
| C=C[C@]1(C)C[C@@H](OC(=O)CSCCN(CC)CC)[C@]2(C)[C@H](C)CC[C@]3(CCC(=O)[C@H]32)[C@@H](C)[C@@H]1O [Tiamulin, reference compound] | – | – | – | – | – | – | – | 1 (≈ 2.03 µM) | 0.25 (≈ 0.506 µM) | 1 (≈ 2.03 µM) | 1 (≈ 2.03 µM) | 0.5 (≈ 1.01 µM) | ≤ 0.004 | 0.125 (≈ 0.253 µM) |
